Measurements from patent US7763657B2, “Compounds, isomer thereof, or pharmaceutically acceptable salts thereof as vanilloid receptor antagonist; and pharmaceutical compositions containing the same” (Amorepacific Corporation, priority 2005, dated 2010).

These compounds were tested against T1, vanilloid receptor (Rattus norvegicus, UniProt O35433) (assay: 45Ca influx test (calcium uptake) in primary cultured DRG neurons, antagonism of capsaicin). Details: neonatal SD rat DRG nerve cells; capsaicin 0.5 μM; 45Ca 10 μCi/ml; 10 mins room temperature; read-out: Antagonist Calcium Uptake Test (IC50).
T1 construct: DRG nerve cells from the primary culture of 2 days were equilibrated; endogenous in cells; host or cells: primary cultured dorsal root ganglion neurons of neonatal SD rats
Format: cell-based
Protocol: 1) Separation of Spinal Dorsal Root Ganglia (DRG) in Newborn Rats and Primary Culture Thereof
Neonatal (2-3 day old or younger than 2-3 day old) SD rats were put in ice for 5 minutes to anesthetize and disinfected with 70% ethanol. […] The DRG were incubated sequentially at 37° C. for 30 min in 200 U/ml collagenase and 2.5 mg/ml trypsin, separately. The ganglia were washed twice with DME/F12 medium supplemented with 10% horse serum, triturated through a fire-polished Pasteur pipette, filtered through Nitex 80 membrane to obtain single cell suspension and the suspension was washed once more. This was subjected to centrifugation, then resuspended in cell culture medium at certain level of cell density. As the cell culture medium, DME/F12 medium supplemented with 10% horse serum was diluted with identical medium conditioned by C6 glioma cells 2 days on a confluent monolayer (1:1), and NGF (Nerve Growth Factor) was added to adjust 200 ng/ml as final concentration. After the cells were grown 2 days in medium where cytosine arabinoside (Ara-C, 100 μM) was added to kill dividing nonneuronal cells, medium was changed to one without Ara-C. The resuspended cells were plated at a density of 1500-2000 neurons/well onto Terasaki plates previously coated with 10 μg/ml poly-D-ornithine.
2) ^45Ca Influx Experiments
DRG nerve cells from the primary culture of 2 days were equilibrated by washing 4 times with HEPES (10 mM, pH 7.4)-buffered Ca^2+, Mg^2+-free HBSS (H—HBSS). The solution in each well was removed from the individual well. Medium containing the test compound plus capsaicin (final concentration 0.5 μM) and ^45Ca (final concentration 10 μCi/ml) in H—HBSS was added to each well and incubated at room temperature for 10 mins. Terasaki plates were washed five times with H—HBSS and dried at room temperature. To each well, 0.3% SDS (10 μl) was added to elute ^45Ca. After the addition of scintillation cocktail of into each well, the amount of ^45Ca influx into neuron was measured by counting radioactivity.

T1 sequence (O35433 whole entry): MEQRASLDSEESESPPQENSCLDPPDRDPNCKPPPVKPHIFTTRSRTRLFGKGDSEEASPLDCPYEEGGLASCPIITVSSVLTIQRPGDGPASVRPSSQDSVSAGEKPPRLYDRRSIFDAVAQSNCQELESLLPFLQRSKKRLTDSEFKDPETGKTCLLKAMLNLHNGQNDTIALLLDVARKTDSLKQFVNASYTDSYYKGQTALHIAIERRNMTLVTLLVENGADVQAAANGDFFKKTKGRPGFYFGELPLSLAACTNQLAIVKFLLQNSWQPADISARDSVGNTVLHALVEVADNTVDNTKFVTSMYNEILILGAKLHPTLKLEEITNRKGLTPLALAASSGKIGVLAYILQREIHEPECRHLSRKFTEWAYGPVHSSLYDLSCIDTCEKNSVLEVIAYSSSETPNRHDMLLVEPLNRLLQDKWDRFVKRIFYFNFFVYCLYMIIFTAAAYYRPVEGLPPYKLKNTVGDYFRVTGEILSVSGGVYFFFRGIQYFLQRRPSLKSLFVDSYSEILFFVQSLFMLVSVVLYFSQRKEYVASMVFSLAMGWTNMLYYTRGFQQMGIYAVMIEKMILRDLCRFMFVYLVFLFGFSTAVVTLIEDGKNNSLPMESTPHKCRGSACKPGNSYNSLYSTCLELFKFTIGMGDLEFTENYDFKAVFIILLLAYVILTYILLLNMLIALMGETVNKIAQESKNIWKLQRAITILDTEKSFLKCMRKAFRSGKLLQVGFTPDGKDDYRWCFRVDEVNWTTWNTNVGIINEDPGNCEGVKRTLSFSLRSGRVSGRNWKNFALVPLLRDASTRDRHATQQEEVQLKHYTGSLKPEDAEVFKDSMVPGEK

Row | Structure (SMILES) | IC50 [nM]
1 | C=Cc1cc(CNC(=O)NCc2ccc(C(C)(C)C)cc2)ccc1NS(C)(=O)=O [Example 1, N-{4-[3-(4-t-butylbenzyl)ureidomethyl]-2-vinylphenyl}methanesulfonamide] | 160
2 | C#Cc1cc(CNC(=O)NCc2ccc(C(C)(C)C)cc2)cc(F)c1NS(C)(=O)=O [Example 3, N-{4-[3-(4-t-butylbenzyl)ureidomethyl]-2-ethynyl-6-fluorophenyl}methanesulfonamide] | 180
3 | C=Cc1cc(CNC(=O)NCc2ccc(C(C)(C)C)cc2)c(Cl)cc1NS(C)(=O)=O [Example 4, N-{4-[3-(4-t-butylbenzyl)ureidomethyl]-5-chloro-2-vinylphenyl}methanesulfonamide] | 170
4 | C#Cc1cc(CNC(=O)NCc2ccc(C(C)(C)C)cc2)c(Cl)cc1NS(C)(=O)=O [Example 5, N-{4-[3-(4-t-butylbenzyl)ureidomethyl]-5-chloro-2-ethynylphenyl}methanesulfonamide] | 490
5 | C=Cc1cc(CNC(=O)NCc2ccc(C(C)(C)C)cc2)cc(C)c1NS(C)(=O)=O [Example 8, N-{4-[3-(4-tert-Butyl-benzyl)-ureidomethyl]-2-methyl-6-vinyl-phenyl}-methanesulfonamide] | 310
6 | C=Cc1cc([C@@H](C)NC(=O)C#Cc2ccc(C(C)(C)C)cc2)cc(F)c1NS(C)(=O)=O [Example 13, 3-(4-tert-Butylphenyl)propynoic acid N-[1-(3-fluoro-4-methanesulfonylamino-5-vinylphenyl)ethyl]amide] | 150
7 | C=Cc1cc(CNC(=O)/C=C/c2ccc(C(C)(C)C)cc2)cc(Cl)c1NS(C)(=O)=O [Example 21, 3-(4-tert-Butylphenyl)-N-(3-chloro-4-methanesulfonylamino-5-vinylbenzyl)acrylamide] | 160
8 | C=Cc1cc(CNC(=O)/C=C/c2ccc(C(C)(C)C)cc2N2CCOCC2)cc(F)c1NS(C)(=O)=O [Example 22, 3-(4-tert-Butyl-2-morpholin-4-yl-phenyl)-N-(3-fluoro-4-methanesulfonylamino-5-vinylbenzyl)acrylamide] | 250
9 | C=Cc1cc(CNC(=O)/C=C/c2ccc(C(C)(C)C)cc2NCCC(C)C)cc(F)c1NS(C)(=O)=O [Example 32, 3-[4-tert-butyl-2-(3-methylbutylamino)phenyl]-N-(3-fluoro-4-methanesulfonylamino-5-vinylbenzyl)acrylamide] | 490
10 | C=Cc1cc(CNC(=O)/C=C/c2ccc(C(C)(C)C)cc2NC(C)C)cc(F)c1NS(C)(=O)=O [Example 34, 3-(4-tert-Butyl-2-isopropylaminophenyl)-N-(3-fluoro-4-methanesulfonylamino-5-vinylbenzyl)acrylamide] | 170
11 | C=Cc1cc(CNC(=O)/C(F)=C/c2ccc(C(C)(C)C)cc2)cc(F)c1NS(C)(=O)=O [Example 38, 3-(4-tert-Butylphenyl)-2-fluoro-N-(3-fluoro-4-methanesulfonylamino-5-vinylbenzyl)acrylamide] | 270
12 | C=Cc1cc(CNC(=O)/C=C/c2ccc(C(C)(C)C)cc2OC2CCOCC2)cc(F)c1NS(C)(=O)=O [Example 40, 3-[4-tert-Butyl-2-(tetrahydropyran-4-yloxy)phenyl]-N-(3-fluoro-4-methanesulfonylamino-5-vinylbenzyl)acrylamide] | 290
13 | C#Cc1cc(CNC(=O)CCc2ccc(C(C)(C)C)cc2)cc(F)c1NS(C)(=O)=O [Example 47, 3-(4-tert-butyl-phenyl)-N-(3-ethynyl-5-fluoro-4-methanesulfonylamino-benzyl)-propionamide] | 170
14 | C#Cc1cc([C@@H](C)NC(=O)Nc2ccc(C(C)(C)C)cc2)ccc1NS(C)(=O)=O [Example 55, (R)—N-(4-{1-[3-(4-tert-Butylphenyl)ureido]ethyl}-2-ethynylphenyl)methanesulfonamide] | 170
15 | C=Cc1cc(CNC(=O)Nc2ccc(C(C)(C)C)cc2)cc(F)c1NS(C)(=O)=O [Example 57, N-{4-[3-(4-tert-Butylphenyl)ureidomethyl]-2-fluoro-6-vinylphenyl}methanesulfonamide] | 500
16 | C=Cc1cc([C@@H](C)NC(=O)Nc2ccc(C(C)(C)C)cc2)ccc1NS(=O)(=O)C=C [Example 58, Ethenesulfonic Acid (4-{1-[3-(4-tert-butylphenyl)ureido]ethyl}-2-vinylphenyl)amide] | 450

The next compounds have a lower IC50 than those just listed; values first:

Row | IC50 [nM] | Structure (SMILES)
17 | 39 | C=Cc1cc([C@@H](C)NC(=O)NCc2ccc(C(C)(C)C)cc2)cc(F)c1NS(C)(=O)=O [Example 7, (R)—N-(4-{1-[3-(4-tert-Butyl-benzyl)-ureido]-ethyl}-2-fluoro-6-vinyl-phenyl)-methanesulfonamide]
18 | 130 | C=Cc1cc(CNC(=O)NCc2ccc(C(C)(C)C)cc2)cc(Cl)c1NS(C)(=O)=O [Example 9, N-{4-[3-(4-tert-Butyl-benzyl)-ureidomethyl]-2-chloro-6-vinyl-phenyl}-methanesulfonamide]
19 | 79 | C=Cc1cc([C@@H](C)NC(=O)C#Cc2ccc(C(C)(C)C)cc2)ccc1NS(C)(=O)=O [Example 11, 3-(4-t-butylphenyl)-N-[1-(R)-(4-methanesulfonylamino-3-vinylphenyl)ethyl]propiolicamide]
20 | 87 | C=Cc1cc(CNC(=O)C#Cc2ccc(C(C)(C)C)cc2)cc(F)c1NS(C)(=O)=O [Example 12, 3-(4-tert-Butylphenyl)propynoic acid 3-fluoro-4-methanesulfonylamino-5-vinylbenzylamide]
21 | 67 | C=Cc1cc(CNC(=O)/C=C/c2ccc(C(C)(C)C)cc2OCCOC)cc(F)c1NS(C)(=O)=O [Example 23, 3-[4-tert-Butyl-2-(2-methoxy-ethoxy)-phenyl]-N-(3-fluoro-4-methanesulfonylamino-5-vinyl-benzyl)-acrylamide]
22 | 76 | C=Cc1cc(CNC(=O)/C=C/c2ccc(C(C)(C)C)cc2NCCOC)cc(F)c1NS(C)(=O)=O [Example 27, 3-[4-tert-Butyl-2-(2-methoxyethylamino)phenyl]-N-(3-fluoro-4-methanesulfonylamino-5-vinylbenzyl)acrylamide]
23 | 73 | C=Cc1cc(CNC(=O)/C=C/c2ccc(C(C)(C)C)cc2OC)cc(F)c1NS(C)(=O)=O [Example 28, 3-(4-tert-Butyl-2-methoxyphenyl)-N-(3-fluoro-4-methanesulfonylamino-5-vinyl-benzyl)acrylamide]
24 | 68 | C=CCOc1cc(C(C)(C)C)ccc1/C=C/C(=O)NCc1cc(F)c(NS(C)(=O)=O)c(C=C)c1 [Example 30, 3-(2-Allyloxy-4-tert-butylphenyl)-N-(3-fluoro-4-methanesulfonylamino-5-vinylbenzyl)acrylamide]
25 | 33 | C=Cc1cc([C@@H](C)NC(=O)CCc2ccc(C(C)(C)C)cc2)cc(F)c1NS(C)(=O)=O [Example 35, (R)-3-(4-tert-Butylphenyl)-N-[1-(3-fluoro-4-methanesulfonylamino-5-vinylphenyl)ethyl]propionamide]
26 | 54 | C=Cc1cc([C@@H](C)NC(=O)/C=C/c2ccc(C(C)(C)C)cc2)cc(F)c1NS(C)(=O)=O [Example 36, (R)-3-(4-tert-Butylphenyl)-N-[1-(3-fluoro-4-methanesulfonylamino-5-vinylphenyl)ethyl]acrylamide]
27 | 49 | C=Cc1cc(CNC(=O)/C(C)=C/c2ccc(C(C)(C)C)cc2)cc(F)c1NS(C)(=O)=O [Example 37, 3-(4-tert-Butylphenyl)-N-(3-fluoro-4-methanesulfonylamino-5-vinylbenzyl)-2-methylacrylamide]
28 | 22 | C=Cc1cc([C@@H](C)NC(=O)/C(C)=C/c2ccc(C(C)(C)C)cc2)ccc1NS(C)(=O)=O [Example 42, (R)-3-(4-tert-Butylphenyl)-N-[1-(4-methanesulfonylamino-3-vinylphenyl)ethyl]-2-methylacrylamide]
29 | 67 | C=Cc1cc(CNC(=O)C(C)Cc2ccc(C(C)(C)C)cc2)cc(F)c1NS(C)(=O)=O (stereo not drawn) [Example 43, 3-(4-tert-Butylphenyl)-N-(3-fluoro-4-methanesulfonylamino-5-vinylbenzyl)-2-methylpropionamide]
30 | 99 | C=Cc1cc([C@@H](C)NC(=O)Nc2ccc(C(C)(C)C)cc2)ccc1NS(C)(=O)=O [Example 53, (R)—N-(4-{1-[3-(4-tert-Butylphenyl)ureido]ethyl}-2-vinylphenyl)methanesulfonamide]
